Source: patent publication US20250205344A1, “2,4-DIOXOTETRAHYDROPYRIMIDINYL DERATIVES AS DEGRONS IN PROTACS” (GLAXOSMITHKLINE INTELLECTUAL PROPERTY DEVELOPMENT LIMITED, priority 2022, published 2025)

Columns and labels:
[1] = target: T1, RIPK2 (Homo sapiens, UniProt O43353); assay: RIPK2 Degradation Assay (Nano-Glo HiBiT); assay type: cell-based; conditions: HiBiT-tagged RIPK2 in HEK 293 cells, 18 h
T1 construct: the RIPK2 gene was modified, using CRISPR/Cas9 editing, so the expressed RIPK2 protein included an 11 amino acid HiBiT tag; endogenous in cells; host or cells: clonal HEK 293-derived line, RIPK2 gene edited by CRISPR/Cas9 (heterozygous)
Description: Degradation of RIPK2 protein in human embryonic kidney (HEK 293) cells treated with PROTACs was quantified using the Nano-Glo® HiBiT Lytic Detection System (Promega) in 384 well assay plate format. A clonal HEK 293 derived cell line was first established in which the RIPK2 gene was modified, using CRISPR/Cas9 editing, so the expressed RIPK2 protein included an 11 amino acid HiBiT tag at it's amino-terminus. The cell lines were heterozygotic for the HiBIT modification. Cells were cryopreserved in aliquots in 90% foetal bovine serum (FBS), 10% DMSO and stored at −150° C. 10 mM DMSO stock solutions of PROTACs were prepared and diluted across an 11 concentration, 3 fold increment range, and 25 nL dispensed into a white opaque bottomed 384 well assay plate (Thermofisher) using an acoustic ECHO dispenser (Labcyte). For the assay, a cryopreserved vials of cells was rapidly thawed and suspended in 30 mL of assay medium (FluoroBrite™ DMEM supplemented with 10% heat inactivated FBS, penicillin 50 U/mL and streptomycin 50 ug/mL (Thermofisher)). The cell suspension was centrifuged at 400 g for 5 min and the pellet resuspended in assay medium. 25 μL of cell suspension containing 10,000 cells was dispensed into each well of the assay plate containing the test compounds, which was then incubated for 18 h at 37° C./5% CO2. Control wells were included on each assay plate, with assay medium without cells being the no RIPK2 remaining 100% effect control, and cells treated with DMSO vehicle only, without PROTAC, the 0% effect control. 25 μL of Nano-Glo® HiBiT lysis buffer supplemented with LgBiT protein and Nano-Glo® substrate (Promega) was added to each well and the plate shaken at 500 rpm for 10 min at room temperature. The intensity of luminescence was measured using a PHERAstar microplate reader (BMG Labtech) and the % RIPK2 protein remaining in each well calculated by normalising the raw luminescence value to the above control wells. Parameters corresponding to the potency and efficacy estimates of the PROTACs were obtained from these normalised luminescence values using software (IDBS ActivityBase). These included the DC50 and the Dmax estimates. Two versions of the DC50, called relative DC50 and absolute DC50, were typically generated. These are the inflection point of a fitted 4 parameter sigmoidal response curve and the interpolated concentration of PROTAC corresponding to 50% of the protein being degraded, respectively. The Dmax parameter was the maximum experimentally observed degradation and the asymptote max parameter the fitted response curve asymptote maximum.

[2] = target: T2, IRAK4 (Interleukin 1 Receptor Associated Kinase 4) (Homo sapiens, UniProt Q9NWZ3); assay: IRAK4 Degradation Assay (Nano-Glo HiBiT); assay type: cell-based; conditions: HiBiT-tagged IRAK4 in HeLa cells, 18 h
T2 construct: the IRAK4 gene was modified, using CRISPR/Cas9 editing, so the expressed IRAK4 protein included an 11 amino acid HiBiT tag; endogenous in cells; host or cells: clonal HeLa line, IRAK4 gene edited by CRISPR/Cas9 (heterozygous)
T2 sequence (Q9NWZ3 1-460): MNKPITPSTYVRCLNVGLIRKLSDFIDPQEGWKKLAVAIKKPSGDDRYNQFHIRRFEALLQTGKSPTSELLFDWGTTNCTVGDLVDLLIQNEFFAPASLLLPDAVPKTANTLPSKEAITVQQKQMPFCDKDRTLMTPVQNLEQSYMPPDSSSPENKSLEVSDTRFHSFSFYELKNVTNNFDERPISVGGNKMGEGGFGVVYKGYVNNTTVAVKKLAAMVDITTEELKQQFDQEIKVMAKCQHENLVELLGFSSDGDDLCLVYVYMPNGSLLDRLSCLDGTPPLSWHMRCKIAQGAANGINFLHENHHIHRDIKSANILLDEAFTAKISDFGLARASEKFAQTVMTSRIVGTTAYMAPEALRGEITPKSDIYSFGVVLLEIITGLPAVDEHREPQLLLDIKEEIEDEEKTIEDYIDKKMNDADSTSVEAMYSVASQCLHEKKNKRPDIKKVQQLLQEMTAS
Description: Degradation of IRAK4 (Interleukin 1 Receptor Associated Kinase 4) protein in Hela cells treated with PROTACs was quantified using the Nano-Glo® HiBiT Lytic Detection System (Promega) in 384 well assay plate format. A clonal HeLa cell line was first established in which the IRAK4 gene was modified, using CRISPR/Cas9 editing, so the expressed IRAK4 protein included an 11 amino acid HiBiT tag at it's amino-terminus. The cell lines were heterozygotic for the HiBiT modification. Cells were cryopreserved in aliquots in 90% foetal bovine serum (FBS), 10% DMSO and stored at −150° C. 10 mM DMSO stock solutions of PROTACs were prepared and diluted across an 11 concentration, 3 fold increment range, and 25 nL dispensed into a white opaque bottomed 384 well assay plate (Thermofisher) using an acoustic ECHO dispenser (Labcyte). […] The intensity of luminescence was measured using a PHERAstar microplate reader (BMG Labtech) and the % IRAK4 protein remaining in each well calculated by normalising the raw luminescence value to the above control wells. Parameters corresponding to the potency and efficacy estimates of the PROTACs were obtained from these normalised luminescence values using software (IDBS ActivityBase). […]

T1 sequence (O43353 whole entry): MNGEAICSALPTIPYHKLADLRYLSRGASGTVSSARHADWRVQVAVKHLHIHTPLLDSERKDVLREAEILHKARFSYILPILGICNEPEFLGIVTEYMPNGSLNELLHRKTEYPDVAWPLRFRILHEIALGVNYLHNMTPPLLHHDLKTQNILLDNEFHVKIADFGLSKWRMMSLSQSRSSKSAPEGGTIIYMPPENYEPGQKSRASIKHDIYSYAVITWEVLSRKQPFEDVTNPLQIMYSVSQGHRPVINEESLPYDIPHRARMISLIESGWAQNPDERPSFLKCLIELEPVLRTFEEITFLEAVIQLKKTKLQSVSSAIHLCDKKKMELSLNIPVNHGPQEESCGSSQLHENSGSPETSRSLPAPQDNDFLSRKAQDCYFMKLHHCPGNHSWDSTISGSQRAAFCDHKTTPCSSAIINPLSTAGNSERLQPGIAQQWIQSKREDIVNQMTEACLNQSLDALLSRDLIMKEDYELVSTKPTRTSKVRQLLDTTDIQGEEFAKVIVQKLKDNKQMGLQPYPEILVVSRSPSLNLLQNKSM

| Mean asymptote max (%) [1] [%] | mean relative pDC50 [1] | mean asymptote max [2] [%] | mean relative pDC50 [2] | SMILES |
| --- | --- | --- | --- | --- |
| 92 | 8.3 |  |  | CC(C)n1ccc2c(N3CCC(=O)NC3=O)cc(C(=O)NCCOCCOCCOc3cc4nccc(Nc5ccc6scnc6c5)c4cc3S(=O)(=O)C(C)(C)C)cc21 [Example R3, N-(2-(2-(2-((4-(Benzo[d]thiazol-5-ylamino)-6-(tert-butylsulfonyl)quinolin-7-yl)oxy)ethoxy)ethoxy)ethyl)-4-(2,4-dioxotetrahydropyrimidin-1(2H)-yl)-1-isopropyl-1H-indole-6-carboxamide] |
|  |  | 96 | 8.1 | CC(C)n1ccc2c(N3CCC(=O)NC3=O)cc(C(=O)NCCOCCOCCN(C)C(=O)c3ccc(-n4cc(NC(=O)c5coc(-c6ccnc(NCC7CC7)c6)n5)c(C(F)F)n4)cc3)cc21 [Example I1, 2-(2-((Cyclopropylmethyl)amino)pyridin-4-yl)-N-(3-(difluoromethyl)-1-(4-((2-(2-(2-(4-(2,4-dioxotetrahydropyrimidin-1(2H)-yl)-1-isopropyl-1H-indole-6-carboxamido)ethoxy)ethoxy)ethyl)(methyl)carbamoyl)phenyl)-1H-pyrazol-4-yl)oxazole-4-carboxamide] |
| 88 | 8.5 |  |  | CC(C)(C)S(=O)(=O)c1cc2c(Nc3ccc4scnc4c3)ccnc2cc1OCCCN1CCC(c2cnc(C(=O)N3CCC(n4ccc5c(N6CCC(=O)NC6=O)cccc54)CC3)cn2)CC1.O=CO [Example R2, 1-(1-(1-(5-(1-(3-((4-(Benzo[d]thiazol-5-ylamino)-6-(tert-butylsulfonyl)quinolin-7-yl)oxy)propyl)piperidin-4-yl)pyrazine-2-carbonyl)piperidin-4-yl)-1H-indol-4-yl)dihydropyrimidine-2,4(1H,3H)-dione formate] |
| 96 | 8.5 |  |  | CC(C)(C)S(=O)(=O)c1cc2c(Nc3ccc4scnc4c3)ccnc2cc1OCCCCCCCC(=O)N1CCC(n2ccc3c(N4CCC(=O)NC4=O)cccc32)CC1 [Example R1, 1-(1-(1-(8-((4-(Benzo[d]thiazol-5-ylamino)-6-(tert-butylsulfonyl)quinolin-7-yl)oxy)octanoyl)piperidin-4-yl)-1H-indol-4-yl)dihydropyrimidine-2,4(1H,3H)-dione] |
